Patent US20100267561A1, “HERBICIDAL PYRIDAZINONE DERIVATIVES” (priority 2007, published 2010)
Read-outs that look alike come from different tables or passages of the source.

How the values were obtained:
Assay type in all cases: in vivo
corn (Zea mays) = experiment: Test B pre-/postemergence plant response; details: Zea mays; for Corn plant response rating (crop injury, 0 = no effect, 100 = complete kill) at 31 g/ha: 31 g ai/ha, 100 complete control; for Corn plant response rating (crop injury, 0 = no effect, 100 = complete kill) at 62 g/ha: 62 g ai/ha; for Corn plant response rating (crop injury, 0 = no effect, 100 = complete kill) at 62 g/ha / Corn plant response rating (crop injury, 0 = no effect, 100 = complete kill) at 125 g/ha / Corn plant response rating (crop injury, 0 = no effect, 100 = complete kill) at 250 g/ha: scale 0 to 100; for Corn plant response rating (crop injury, 0 = no effect, 100 = complete kill) at 125 g/ha: 125 g ai/ha; for Corn plant response rating (crop injury, 0 = no effect, 100 = complete kill) at 250 g/ha: 250 g ai/ha
Outline: (§1)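 Seeds were sown and sprayed preemergence, while plants at 2 to 18 cm (1- to 4-leaf stage) got postemergence sprays. Compounds were formulated in a non-phytotoxic solvent mixture with surfactant. After 13 to 15 days in a greenhouse, injury was rated visually against untreated controls, 0 (no effect) to 100 (complete control).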

[1] = system: downy bromegrass (Bromus tectorum); experiment: Test B pre-/postemergence plant response; details: Bromus tectorum, read-out: Plant response rating, Bromegrass, Downy; for pest or weed control at 31 g/ha: 31 g ai/ha, 100 complete control; for pest or weed control at 62 g/ha: 62 g ai/ha; for pest or weed control at 125 g/ha: 125 g ai/ha; for pest or weed control at 250 g/ha: 250 g ai/ha
Outline: as §1

[2] = system: eastern black (E.B.) nightshade (Solanum ptycanthum); experiment: Test B pre-/postemergence plant response; details: Solanum, pre-emergence, Preemergence, read-out: Plant response rating, Nightshade, E. B.
Outline: as §1

[3] = system: giant foxtail (Setaria faberii); experiment: Test B pre-/postemergence plant response; details: Setaria faberi, read-out: Plant response rating, Foxtail, Giant; for pest or weed control at 31 g/ha: 31 g ai/ha, 100 complete control; for pest or weed control at 62 g/ha: 62 g ai/ha; for pest or weed control at 62 g/ha / pest or weed control at 125 g/ha / pest or weed control at 250 g/ha: scale 0 to 100; for pest or weed control at 125 g/ha: 125 g ai/ha; for pest or weed control at 250 g/ha: 250 g ai/ha
Outline: as §1

[4] = system: green foxtail (Setaria viridis); experiment: Test B pre-/postemergence plant response; details: Setaria viridis, read-out: Plant response rating, Foxtail, Green; for pest or weed control at 31 g/ha: 31 g ai/ha, 100 complete control; for pest or weed control at 62 g/ha: 62 g ai/ha; for pest or weed control at 62 g/ha / pest or weed control at 125 g/ha / pest or weed control at 250 g/ha: scale 0 to 100; for pest or weed control at 125 g/ha: 125 g ai/ha; for pest or weed control at 250 g/ha: 250 g ai/ha
Outline: as §1

[5] = system: large crabgrass (Digitaria sanguinalis); experiment: Test B pre-/postemergence plant response; details: Digitaria sanguinalis, read-out: Plant response rating, Crabgrass, Large; for pest or weed control at 31 g/ha: 31 g ai/ha, 100 complete control; for pest or weed control at 62 g/ha: 62 g ai/ha; for pest or weed control at 62 g/ha / pest or weed control at 125 g/ha / pest or weed control at 250 g/ha: scale 0 to 100; for pest or weed control at 125 g/ha: 125 g ai/ha; for pest or weed control at 250 g/ha: 250 g ai/ha
Outline: as §1

[6] = system: pigweed (Amaranthus retroflexus); experiment: Test B pre-/postemergence plant response; details: Amaranthus retroflexus, read-out: Plant response rating, Pigweed; for pest or weed control at 62 g/ha: 62 g ai/ha; for pest or weed control at 62 g/ha / pest or weed control at 125 g/ha / pest or weed control at 250 g/ha: scale 0 to 100; for pest or weed control at 125 g/ha: 125 g ai/ha; for pest or weed control at 250 g/ha: 250 g ai/ha
Outline: as §1

wild oat (Avena fatua) = experiment: Test B pre-/postemergence plant response; details: Avena fatua, read-out: Plant response rating, Oat, Wild; for pest or weed control at 31 g/ha: 31 g ai/ha, 100 complete control; for pest or weed control at 62 g/ha: 62 g ai/ha; for pest or weed control at 62 g/ha / pest or weed control at 125 g/ha / pest or weed control at 250 g/ha: scale 0 to 100; for pest or weed control at 125 g/ha: 125 g ai/ha; for pest or weed control at 250 g/ha: 250 g ai/ha
Outline: as §1

[7] = system: woolly cupgrass (Eriochloa villosa); experiment: Test B pre-/postemergence plant response; details: Eriochloa villosa, read-out: Plant response rating, Cupgrass, Woolly; for pest or weed control at 31 g/ha: 31 g ai/ha, 100 complete control; for pest or weed control at 62 g/ha: 62 g ai/ha; for pest or weed control at 62 g/ha / pest or weed control at 125 g/ha / pest or weed control at 250 g/ha: scale 0 to 100; for pest or weed control at 125 g/ha: 125 g ai/ha; for pest or weed control at 250 g/ha: 250 g ai/ha
Outline: as §1

[8] = system: barnyardgrass (Echinochloa crus-galli); experiment: Test B flooded paddy test plant response; details: Echinochloa crus-galli, read-out: Plant response rating, Barnyardgrass
Outline: (§2)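 Rice, umbrella sedge, ducksalad and barnyardgrass at 2-leaf stage; pots flooded to 3 cm, compounds applied into paddy water, depth held throughout. Greenhouse 13 to 15 days, then visual rating vs untreated controls on 0–100 scale (0 no effect, 100 complete control); dash means no test result.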

[9] = system: ducksalad (Heteranthera limosa); experiment: Test B flooded paddy test plant response; details: Heteranthera limosa, read-out: Plant response rating, Ducksalad
Outline: as §2

rice (Oryza sativa) = experiment: Test B flooded paddy test plant response; details: Oryza sativa, read-out: Plant response rating, Rice
Outline: as §2

[10] = system: umbrella sedge (Cyperus difformis); experiment: Test B flooded paddy test plant response; details: Cyperus difformis, read-out: Plant response rating, Sedge, Umbrella
Outline: as §2

[11] = post-emergence, Postemergence, scale 0 to 100, 0 no effect
[12] = pre-emergence, Preemergence, 0 to 100 scale, 0 no effect
[13] = post-emergence, Postemergence, scale 0 to 100
[14] = pre-emergence, Preemergence, scale 0 to 100
[15] = Flood (flooded paddy test), 62 g ai/ha, scale 0 to 100, 0 no effect, 100 complete control
[16] = Flood (flooded paddy test), 125 g ai/ha, scale 0 to 100, 0 no effect, 100 complete control
[17] = Flood (flooded paddy test), 250 g ai/ha, scale 0 to 100, 0 no effect, 100 complete control
[18] = Flood, 31 g ai/ha, scale 0 to 100

Cc1cc(-c2ccc(C(F)(F)F)cc2)nn1-c1c(O)cnn(C)c1=O [Compound 1, 5-hydroxy-2-methyl-4-[5-methyl-3-[4-(trifluoromethyl)phenyl]-1H-pyrazol-1-yl]-3(2H)-pyridazinone]
Corn plant response rating (crop injury, 0 = no effect, 100 = complete kill) at 31 g/ha (corn (Zea mays); [11]): 10%
Corn plant response rating (crop injury, 0 = no effect, 100 = complete kill) at 62 g/ha (corn (Zea mays); post-emergence, Postemergence): 100%
Corn plant response rating (crop injury, 0 = no effect, 100 = complete kill) at 125 g/ha (corn (Zea mays); post-emergence, Postemergence): 100%
Corn plant response rating (crop injury, 0 = no effect, 100 = complete kill) at 250 g/ha (corn (Zea mays); post-emergence, Postemergence): 100%
Corn plant response rating (crop injury, 0 = no effect, 100 = complete kill) at 31 g/ha (corn (Zea mays); [12]): 90%
Corn plant response rating (crop injury, 0 = no effect, 100 = complete kill) at 62 g/ha (corn (Zea mays); pre-emergence, Preemergence): 95%
Corn plant response rating (crop injury, 0 = no effect, 100 = complete kill) at 125 g/ha (corn (Zea mays); pre-emergence, Preemergence): 100%
Corn plant response rating (crop injury, 0 = no effect, 100 = complete kill) at 250 g/ha (corn (Zea mays); pre-emergence, Preemergence): 100%
pest or weed control at 31 g/ha [1, 11]: 30%
pest or weed control at 62 g/ha [1, 13]: 60%
pest or weed control at 125 g/ha [1, 13]: 95%
pest or weed control at 250 g/ha [1, 13]: 100%
pest or weed control at 31 g/ha [1, 12]: 40%
pest or weed control at 62 g/ha [1, 14]: 80%
pest or weed control at 125 g/ha [1, 14]: 80%
pest or weed control at 250 g/ha ([1]; pre-emergence, Preemergence, scale 0 to 100 (0 no effect, 100 complete control)): 95%
pest or weed control at 31 g/ha ([2]; 31 g ai/ha, 0 to 100 scale, 0 no effect, 100 complete control): 0%
pest or weed control at 62 g/ha ([2]; 62 g ai/ha, scale 0 to 100): 0%
pest or weed control at 125 g/ha ([2]; 125 g ai/ha, scale 0 to 100): 0%
pest or weed control at 250 g/ha ([2]; 250 g ai/ha, scale 0 to 100): 0%
pest or weed control at 31 g/ha [3, 11]: 100%
pest or weed control at 62 g/ha ([3]; post-emergence, Postemergence): 100%
pest or weed control at 125 g/ha ([3]; post-emergence, Postemergence): 100%
pest or weed control at 250 g/ha ([3]; post-emergence, Postemergence): 100%
pest or weed control at 31 g/ha [3, 12]: 100%
pest or weed control at 62 g/ha ([3]; pre-emergence, Preemergence): 100%
pest or weed control at 125 g/ha ([3]; pre-emergence, Preemergence): 100%
pest or weed control at 250 g/ha ([3]; pre-emergence, Preemergence): 100%
pest or weed control at 31 g/ha [4, 11]: 95%
pest or weed control at 62 g/ha ([4]; post-emergence, Postemergence): 100%
pest or weed control at 125 g/ha ([4]; post-emergence, Postemergence): 100%
pest or weed control at 250 g/ha ([4]; post-emergence, Postemergence): 100%
pest or weed control at 31 g/ha [4, 12]: 100%
pest or weed control at 62 g/ha ([4]; pre-emergence, Preemergence): 100%
pest or weed control at 125 g/ha ([4]; pre-emergence, Preemergence): 100%
pest or weed control at 250 g/ha ([4]; pre-emergence, Preemergence): 100%
pest or weed control at 31 g/ha [5, 11]: 80%
pest or weed control at 62 g/ha ([5]; post-emergence, Postemergence): 90%
pest or weed control at 125 g/ha ([5]; post-emergence, Postemergence): 100%
pest or weed control at 250 g/ha ([5]; post-emergence, Postemergence): 100%
pest or weed control at 31 g/ha [5, 12]: 98%
pest or weed control at 62 g/ha ([5]; pre-emergence, Preemergence): 100%
pest or weed control at 125 g/ha ([5]; pre-emergence, Preemergence): 100%
pest or weed control at 250 g/ha ([5]; pre-emergence, Preemergence): 100%
pest or weed control at 31 g/ha ([6]; post-emergence, Postemergence, 31 g ai/ha, scale 0 to 100, 0 no effect, 100 complete control): 0%
pest or weed control at 62 g/ha ([6]; post-emergence, Postemergence): 0%
pest or weed control at 125 g/ha ([6]; post-emergence, Postemergence): 0%
pest or weed control at 250 g/ha ([6]; post-emergence, Postemergence): 40%
pest or weed control at 62 g/ha ([6]; pre-emergence, Preemergence): 0%
pest or weed control at 125 g/ha ([6]; pre-emergence, Preemergence): 0%
pest or weed control at 250 g/ha ([6]; pre-emergence, Preemergence): 0%
pest or weed control at 31 g/ha (wild oat (Avena fatua); [11]): 90%
pest or weed control at 62 g/ha (wild oat (Avena fatua); post-emergence, Postemergence): 100%
pest or weed control at 125 g/ha (wild oat (Avena fatua); post-emergence, Postemergence): 100%
pest or weed control at 250 g/ha (wild oat (Avena fatua); post-emergence, Postemergence): 100%
pest or weed control at 31 g/ha (wild oat (Avena fatua); [12]): 60%
pest or weed control at 62 g/ha (wild oat (Avena fatua); pre-emergence, Preemergence): 85%
pest or weed control at 125 g/ha (wild oat (Avena fatua); pre-emergence, Preemergence): 90%
pest or weed control at 250 g/ha (wild oat (Avena fatua); pre-emergence, Preemergence): 98%
pest or weed control at 31 g/ha [7, 11]: 95%
pest or weed control at 62 g/ha ([7]; post-emergence, Postemergence): 100%
pest or weed control at 125 g/ha ([7]; post-emergence, Postemergence): 100%
pest or weed control at 250 g/ha ([7]; post-emergence, Postemergence): 100%
pest or weed control at 31 g/ha [7, 12]: 85%
pest or weed control at 62 g/ha ([7]; pre-emergence, Preemergence): 100%
pest or weed control at 125 g/ha ([7]; pre-emergence, Preemergence): 100%
pest or weed control at 250 g/ha ([7]; pre-emergence, Preemergence): 100%
pest or weed control at 62 g/ha [8, 15]: 0%
pest or weed control at 125 g/ha [8, 16]: 20%
pest or weed control at 250 g/ha [8, 17]: 60%
pest or weed control at 31 g/ha [8, 18]: 0%
pest or weed control at 62 g/ha [9, 15]: 0%
pest or weed control at 125 g/ha [9, 16]: 0%
pest or weed control at 250 g/ha [9, 17]: 30%
pest or weed control at 31 g/ha [9, 18]: 0%
plant injury at 62 g/ha (rice (Oryza sativa); [15]): 0%
plant injury at 125 g/ha (rice (Oryza sativa); [16]): 0%
plant injury at 250 g/ha (rice (Oryza sativa); [17]): 50%
plant injury at 31 g/ha (rice (Oryza sativa); [18]): 0%
pest or weed control at 62 g/ha [10, 15]: 40%
pest or weed control at 125 g/ha [10, 16]: 40%
pest or weed control at 250 g/ha [10, 17]: 60%
pest or weed control at 31 g/ha [10, 18]: 0%
